Laboratory results: ChEMBL document CHEMBL1201862, “PubChem BioAssay data set” (2004)
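Following 48 hours of exposure in 96-well plates, responses at five concentrations were used to interpolate endpoints linearly. At the GI50, growth is halved.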 Active and inactive are the calls of the source. No stated cut-off is given here; in the data, active = GI50 up to about 1.1 µM and inactive = higher.

How the values were obtained:
Experiment in all cases: inhibition of tumour cell growth, NCI panel, 48 h
OVCAR-4 = test system: OVCAR-4
MDA-MB-435 = test system: MDA-MB-435
SW-620 = test system: SW-620
RXF 393 = test system: RXF 393
SF-539 = test system: SF-539
SF-268 = test system: SF-268
DU-145 = test system: DU-145
Malme-3M = test system: Malme-3M
NCI-H522 = test system: NCI-H522
T47D = test system: T47D
NCI-H226 = test system: NCI-H226
PC-3 = test system: PC-3
CAKI-1 = test system: CAKI-1
MDA-MB-231 = test system: MDA-MB-231
SN12C = test system: SN12C
NCI-H460 = test system: NCI-H460
HL-60 = test system: HL-60
MDA-N = test system: MDA-N
SK-MEL-2 = test system: SK-MEL-2
CCRF-CEM = test system: CCRF-CEM
786-0 = test system: 786-0
HCT-116 = test system: HCT-116
SK-OV-3 = test system: SK-OV-3
ACHN = test system: ACHN
UACC-62 = test system: UACC-62
U-251 = test system: U-251
TK-10 = test system: TK-10
IGROV-1 = test system: IGROV-1
SNB-19 = test system: SNB-19
BT-549 = test system: BT-549
HOP-62 = test system: HOP-62
SF-295 = test system: SF-295
HOP-92 = test system: HOP-92
UACC-257 = test system: UACC-257
HCT-15 = test system: HCT-15
A549 = test system: A549
HCC 2998 = test system: HCC 2998
OVCAR-3 = test system: OVCAR-3
MOLT-4 = test system: MOLT-4
LOX IMVI = test system: LOX IMVI
UO-31 = test system: UO-31
Hs-578T = test system: Hs-578T
M14 = test system: M14
K562 = test system: K562
EKVX = test system: EKVX
OVCAR-5 = test system: OVCAR-5
NCI-H23 = test system: NCI-H23
SR = test system: SR
MCF7 = test system: MCF7
SK-MEL-28 = test system: SK-MEL-28
A498 = test system: A498
RPMI-8226 = test system: RPMI-8226
HT-29 = test system: HT-29
SK-MEL-5 = test system: SK-MEL-5
COLO 205 = test system: COLO 205
OVCAR-8 = test system: OVCAR-8
SNB-75 = test system: SNB-75
KM12 = test system: KM12
NCI/ADR-RES = test system: NCI/ADR-RES

Q: With CCOc1ccc(C(=O)/C=C2/Nc3ccccc3N/C2=C/C(=O)c2ccc(OCC)cc2)cc1 as the compound, how does the GI50 (OVCAR-4) read?
A: 72.3 µM (inactive)

Q: What about the GI50 (MDA-MB-435) of the same compound?
A: > 100 µM (inactive)

Q: And the GI50 (SW-620)?
A: > 100 µM (inactive)

Q: And the GI50 (RXF 393)?
A: > 100 µM (inactive)

Q: And the GI50 (SF-539)?
A: > 100 µM (inactive)

Q: And the GI50 (SF-268)?
A: > 100 µM (inactive)

Q: And the GI50 (DU-145)?
A: > 100 µM (inactive)

Q: And the GI50 (Malme-3M)?
A: 41.7 µM (inactive)

Q: What about the GI50 (NCI-H522) of the same compound?
A: > 100 µM (inactive)

Q: What about the GI50 (T47D) of the same compound?
A: > 100 µM (inactive)

Q: And the GI50 (NCI-H226)?
A: > 100 µM (inactive)

Q: And the GI50 (PC-3)?
A: > 100 µM (inactive)

Q: What about the GI50 (CAKI-1) of the same compound?
A: > 100 µM (inactive)

Q: What about the GI50 (MDA-MB-231) of the same compound?
A: > 100 µM (inactive)

Q: And the GI50 (SN12C)?
A: > 100 µM (inactive)

Q: What about the GI50 (NCI-H460) of the same compound?
A: 85.3 µM (inactive)

Q: And the GI50 (HL-60)?
A: > 100 µM (inactive)

Q: What about the GI50 (MDA-N) of the same compound?
A: > 100 µM (inactive)

Q: What about the GI50 (SK-MEL-2) of the same compound?
A: > 100 µM (inactive)

Q: What about the GI50 (CCRF-CEM) of the same compound?
A: 29.7 µM (inactive)

Q: What about the GI50 (786-0) of the same compound?
A: 80 µM (inactive)

Q: What about the GI50 (HCT-116) of the same compound?
A: 78.2 µM (inactive)

Q: What about the GI50 (SK-OV-3) of the same compound?
A: > 100 µM (inactive)

Q: What about the GI50 (ACHN) of the same compound?
A: > 100 µM (inactive)

Q: What about the GI50 (UACC-62) of the same compound?
A: > 100 µM (inactive)

Q: What about the GI50 (U-251) of the same compound?
A: > 100 µM (inactive)

Q: And the GI50 (TK-10)?
A: > 100 µM (inactive)

Q: What about the GI50 (IGROV-1) of the same compound?
A: 57.9 µM (inactive)

Q: What about the GI50 (SNB-19) of the same compound?
A: > 100 µM (inactive)

Q: What about the GI50 (BT-549) of the same compound?
A: > 100 µM (inactive)

Q: What about the GI50 (HOP-62) of the same compound?
A: > 100 µM (inactive)

Q: What about the GI50 (SF-295) of the same compound?
A: > 100 µM (inactive)

Q: And the GI50 (HOP-92)?
A: > 100 µM (inactive)

Q: What about the GI50 (UACC-257) of the same compound?
A: > 100 µM (inactive)

Q: What about the GI50 (HCT-15) of the same compound?
A: 96.4 µM

Q: And the GI50 (A549)?
A: > 100 µM (inactive)

Q: What about the GI50 (HCC 2998) of the same compound?
A: > 100 µM (inactive)

Q: And the GI50 (OVCAR-3)?
A: > 100 µM (inactive)

Q: What about the GI50 (MOLT-4) of the same compound?
A: 81.3 µM (inactive)

Q: What about the GI50 (LOX IMVI) of the same compound?
A: > 100 µM (inactive)

Q: What about the GI50 (UO-31) of the same compound?
A: > 100 µM (inactive)

Q: And the GI50 (Hs-578T)?
A: 37.6 µM (inactive)

Q: And the GI50 (M14)?
A: > 100 µM (inactive)

Q: What about the GI50 (K562) of the same compound?
A: > 100 µM (inactive)

Q: What about the GI50 (EKVX) of the same compound?
A: > 100 µM (inactive)

Q: What about the GI50 (OVCAR-5) of the same compound?
A: > 100 µM (inactive)

Q: And the GI50 (NCI-H23)?
A: > 100 µM (inactive)

Q: What about the GI50 (SR) of the same compound?
A: 3.43 µM (inactive)

Q: What about the GI50 (MCF7) of the same compound?
A: > 100 µM (inactive)

Q: What about the GI50 (SK-MEL-28) of the same compound?
A: > 100 µM (inactive)

Q: And the GI50 (A498)?
A: > 100 µM (inactive)

Q: What about the GI50 (RPMI-8226) of the same compound?
A: > 100 µM (inactive)

Q: What about the GI50 (HT-29) of the same compound?
A: > 100 µM (inactive)

Q: What about the GI50 (SK-MEL-5) of the same compound?
A: > 100 µM (inactive)

Q: What about the GI50 (COLO 205) of the same compound?
A: > 100 µM (inactive)

Q: For CC1(C)CC2=C(Sc3ccccc3N2)C(=O)C1C(=O)C(=O)Nc1cccc([N+](=O)[O-])c1 (stereo unspecified), which GI50 (OVCAR-4) is on record?
A: 82.4 µM (inactive)

Q: What about the GI50 (MDA-MB-435) of the same compound?
A: > 100 µM (inactive)

Q: And the GI50 (SW-620)?
A: > 100 µM (inactive)

Q: What about the GI50 (OVCAR-8) of the same compound?
A: > 100 µM (inactive)

Q: What about the GI50 (SF-539) of the same compound?
A: > 100 µM (inactive)

Q: And the GI50 (SF-268)?
A: > 100 µM (inactive)

Q: And the GI50 (SNB-75)?
A: > 100 µM (inactive)

Q: And the GI50 (DU-145)?
A: > 100 µM (inactive)

Q: And the GI50 (Malme-3M)?
A: > 100 µM (inactive)

Q: And the GI50 (NCI-H522)?
A: > 100 µM (inactive)

Q: What about the GI50 (T47D) of the same compound?
A: > 100 µM (inactive)

Q: And the GI50 (NCI-H226)?
A: > 100 µM (inactive)

Q: What about the GI50 (PC-3) of the same compound?
A: 75.9 µM (inactive)

Q: And the GI50 (CAKI-1)?
A: > 100 µM (inactive)

Q: What about the GI50 (MDA-MB-231) of the same compound?
A: 99.3 µM (inactive)

Q: What about the GI50 (SN12C) of the same compound?
A: > 100 µM (inactive)

Q: And the GI50 (KM12)?
A: 44 µM (inactive)

Q: What about the GI50 (NCI-H460) of the same compound?
A: > 100 µM (inactive)

Q: What about the GI50 (HL-60) of the same compound?
A: > 100 µM (inactive)

Q: And the GI50 (MDA-N)?
A: > 100 µM (inactive)

Q: And the GI50 (SK-MEL-2)?
A: > 100 µM (inactive)

Q: What about the GI50 (CCRF-CEM) of the same compound?
A: 0.0738 µM (active)

Q: What about the GI50 (786-0) of the same compound?
A: > 100 µM (inactive)

Q: What about the GI50 (HCT-116) of the same compound?
A: > 100 µM (inactive)

Q: What about the GI50 (SK-OV-3) of the same compound?
A: > 100 µM (inactive)

Q: What about the GI50 (ACHN) of the same compound?
A: > 100 µM (inactive)

Q: And the GI50 (UACC-62)?
A: 98.2 µM (inactive)

Q: What about the GI50 (U-251) of the same compound?
A: > 100 µM (inactive)

Q: And the GI50 (TK-10)?
A: > 100 µM (inactive)

Q: And the GI50 (IGROV-1)?
A: > 100 µM (inactive)

Q: And the GI50 (SNB-19)?
A: > 100 µM (inactive)

Q: What about the GI50 (BT-549) of the same compound?
A: > 100 µM (inactive)

Q: What about the GI50 (SF-295) of the same compound?
A: > 100 µM (inactive)

Q: And the GI50 (HOP-92)?
A: > 100 µM (inactive)

Q: And the GI50 (UACC-257)?
A: > 100 µM (inactive)

Q: And the GI50 (HCT-15)?
A: > 100 µM

Q: And the GI50 (A549)?
A: > 100 µM (inactive)

Q: What about the GI50 (HCC 2998) of the same compound?
A: > 100 µM (inactive)

Q: And the GI50 (NCI/ADR-RES)?
A: > 100 µM (inactive)

Q: And the GI50 (OVCAR-3)?
A: 85.5 µM (inactive)

Q: What about the GI50 (MOLT-4) of the same compound?
A: 33 µM (inactive)

Q: And the GI50 (LOX IMVI)?
A: > 100 µM (inactive)

Q: And the GI50 (UO-31)?
A: > 100 µM (inactive)

Q: And the GI50 (Hs-578T)?
A: > 100 µM (inactive)

Q: And the GI50 (M14)?
A: > 100 µM (inactive)

Q: What about the GI50 (K562) of the same compound?
A: 66.8 µM (inactive)

Q: What about the GI50 (EKVX) of the same compound?
A: > 100 µM (inactive)

Q: What about the GI50 (OVCAR-5) of the same compound?
A: > 100 µM (inactive)

Q: And the GI50 (NCI-H23)?
A: > 100 µM (inactive)

Q: And the GI50 (MCF7)?
A: > 100 µM (inactive)

Q: And the GI50 (SK-MEL-28)?
A: > 100 µM (inactive)

Q: And the GI50 (A498)?
A: > 100 µM (inactive)

Q: And the GI50 (RPMI-8226)?
A: 64.6 µM (inactive)

Q: What about the GI50 (HT-29) of the same compound?
A: > 100 µM (inactive)

Q: And the GI50 (SK-MEL-5)?
A: > 100 µM (inactive)

Q: What about the GI50 (COLO 205) of the same compound?
A: > 100 µM (inactive)
